Measurements as given in US10428028B2, “HDAC inhibitors” (BIOMARIN PHARMACEUTICAL INC., priority 2013, dated 2019).
Where two headings read alike, the source gives them in different places.

Assays:
HDAC1 = HDAC1 (Homo sapiens (Human), UniProt Q13547); assay: HDAC enzyme inhibition assay (Fluor-de-Lys), HDAC1; assay type: biochemical; conditions: 2 hours pre-incubation
Description: (§1) The HDAC activity inhibition assay was performed as follows to determine the ability of a test compound to inhibit HDAC enzymatic activity. Serial dilutions of HDAC inhibitors were prepared in HDAC assay buffer (25 mM Tris/HCl, pH 8.0, 137 mM NaCl, 2.7 mM KCl, 1 mM MgCl2, pH 8) in 96-well assay plates (Fisher scientific, #07-200-309) and were pre-incubated for 2 hours at room temperature in the presence of 125 μg/ml BSA and purified HDAC1 (BPS Bioscience, San Diego, Calif., #50051), HDAC2 (BPS Bioscience, #50053), or HDAC3/NcoR2 (BPS Bioscience, #50003) at concentrations of 1.25, 1.32, and 0.167 μg/mL, respectively. Following pre-incubation, Fluor-de-Lys™ substrate (Enzo Life Sciences, Plymouth Meeting, Pa., BML-KI104-0050) was added to a final concentration of 10 μM and plates were further incubated for 30 minutes at room temperature. The enzymatic reaction was stopped by addition of Trichostatin A (Sigma-Aldrich, St Louis, Mo., #T8552, final concentration: 100 nM) and trypsin (MP Biomedicals, Solon, Ohio, #02101179) was added to reach a final concentration of 100 μg/mL. After a 15 minute incubation at room temperature, fluorescence was recorded using a Spectramax M2 fluorometer (Molecular Devices, Sunnyvale, Calif.) with excitation at 365 nm and emission at 460 nm. IC50 values were calculated by using a sigmoidal dose-response (variable slope) equation in GraphPad Prism® 5 for Windows (GraphPad Software, La Jolla, Calif.). Results for selected compounds in the HDAC activity inhibition assay are presented in Table 5 (IC50 ranges: IA>20 μM, A<1 μM, 1<B<5 μM, 5<C<10 μM, 10<D<20 μM, ND: not determined).

[1] = Hepatocyte stability and metabolism (parent remaining, acid and OPD formation); assay type: in vitro ADME; conditions: human hepatocytes; for % left 6H Hum hep: 5 μM; for OPD: OPD formation by LC-MS/MS after phenylglyoxal derivatisation
Description: The inventors have found, however, that formula (I) compound metabolites are substantially free of OPD when formula (I) compounds are subjected to conditions intended to mimic in vivo metabolism pathways. As used herein, the term “substantially free of OPD” means that OPD was not detected by LC-MS/MS after (i) incubating a formula (I) compound with human, monkey, dog and rat hepatocytes and (ii) treating the metabolite milieu with an acidic solution of phenylglyoxal in an organic solvent (this addition leads to quantitative formation of 2-phenylquinoxaline, which can be easily quantified with a low lower limit of quantitation (LLOQ)). See the Examples section.
To assess the stability and metabolism of RGFP compounds and to quantify the metabolites in hepatocytes. This assay was designed to evaluate the metabolism of RGFP compounds, following their incubation with human, monkey, dog and rat hepatocytes by monitoring either parent drug disappearance or metabolite appearance using LC-MS/MS. The results are shown in Table 5 ((% Left in Hep: IA<10%, 50%<A, 50%>B>30%, 30%>C>10%, ND: not determined).
Procedure: Turn on the water-bath heater to 37° C. Take out the KHB buffer and make sure it is at room temp before use. Prepare 2.5 mM concentration of RGFP compound in DMSO stock. Add 10 μL of above DMSO stock to 2490 μL KHB buffer; final concentration of RGFP compound will be 10 μM. Pre-warm 45 ml InVitro HT Medium to 37° C. in a sterile 50 ml conical tube. Add 1.0 mL Torpedo Antibiotic Mix per 45 mL InVitro HT medium. Transfer 13 mL of warm HT medium with Antibiotic Mix into a 15 mL conical tube. Carefully remove the hepatocyte vials from liquid nitrogen (liquid phase). Immediately immerse the vial into a 37° C. water bath. Shake gently until the ice melts entirely. […] Immediately empty contents of the vial into 13 ml of pre-warmed InVitro HT Medium with antibiotics. Rinse the vial with the HT media just transferred the hepatocytes to, in order to ensure complete transfer. Centrifuge the cell suspension at 600 RPM for 5 minutes at room temperature. […] Add 1.0 ml of KHB (at room temperature) buffer to the tube of hepatocyte pellet. Loosen the cell pellet by gently swirling the centrifuge tube. Transfer 100 μL of above solution to a different tube and add 900 μL of KHB buffer to count the cells. Determine the total cell count and the number of viable cells using the Trypan Blue exclusion method. Once the cell count is obtained, multiply the number by 10 (attributing to the dilution factor). Add required volume of KHB buffer to the tube containing hepatocytes such that the final count will be 2 million cells/mL. Dispense 50 μL of 2 million cells/ml to a 96 well plate and then add 50 μl of DMSO stock to respective wells (such that, the concentration of RGFP compounds is 5 μM and number of cells are 100000 in each well). Place the plates on a shaker in a 37° C. incubator with 5% CO2. Separate plates for each time point are advisable (Time points: 0 h, 1 h, 2 h, and 6 h). After each time point, add 100 μL of quenching solution. Quenching solution is an acetonitrile solution containing RGFP531 (10 μM) internal standard, 0.1% formic acid and phenylglyoxol (400 μM). The formic acid and phenylglyoxal is used for the identification and quantification of OPD as mentioned above. Pipette up and down a few times to ensure a complete stop of reaction. Transfer all the solution into a 1.5 ml tube, vortex thoroughly, and centrifuge at 14000 RPM at 4° C. for 5 minutes to precipitate cell debris. Transfer the 150 μL of supernatant to vials for analysis on LC-MS/MS.
LC-MS/MS parameters for RGFP compounds and metabolites including OPD: LC-MS/MS Parameters for API 2000 QTrap: System: HPLC 1100; Column: Gemini C18, 5 μM 4.6×50 mm; Column Temp: Ambient; MS: API 2000 QTrap (MI mode); Mobile Phase A: HPLC water with 0.05% Formic Acid; Mobile Phase B: Acetonitrile with 0.05% Formic Acid.

[2] = Brain penetration studies; assay type: in vivo; conditions: C57/BL6/J, mouse; mice, s.c. 5 or 50 mg/kg or i.v. 5 mg/kg; Cmax(brain)/Cmax(plasma); read-out: BPR (brain/plasma ratio)
Description: Test compounds were prepared at either 0.5 mg/ml or 5 mg/ml in 30% hydroxypropyl-β-cyclodextrin, 100 mM sodium acetate pH 5.5, 5% DMSO. C57/BL6/J mice were dosed s.c. at 5 mg/kg or 50 mg/kg, or i.v. at 5 mg/kg. Animals were euthanized at pre-dose, 5, 15, 30 min, 1, 2 and 4 hours post-dose and plasma and brain obtained. Three animals per dose per time points were used. The levels of compound in the plasma and brain were determined by standard LC/MS/MS methods. Brain/plasma ratio (BPR) was calculated as the ratio of the Cmax(brain)/Cmax(plasma). The results are shown in Table 5, where IA corresponds to a BPR less than 0.1, D is between 0.1 and 0.2, C is 0.2 to 0.5, B comprises 0.5 to 1 and A is greater than 1.

HDAC3/NcoR2 = HDAC3/NcoR2 (Homo sapiens (Human), UniProt O15379); assay: HDAC enzyme inhibition assay (Fluor-de-Lys), HDAC3/NcoR2; assay type: biochemical; conditions: HDAC3/NcoR2, 2 hours pre-incubation
HDAC3/NcoR2, sequence (O15379 whole entry): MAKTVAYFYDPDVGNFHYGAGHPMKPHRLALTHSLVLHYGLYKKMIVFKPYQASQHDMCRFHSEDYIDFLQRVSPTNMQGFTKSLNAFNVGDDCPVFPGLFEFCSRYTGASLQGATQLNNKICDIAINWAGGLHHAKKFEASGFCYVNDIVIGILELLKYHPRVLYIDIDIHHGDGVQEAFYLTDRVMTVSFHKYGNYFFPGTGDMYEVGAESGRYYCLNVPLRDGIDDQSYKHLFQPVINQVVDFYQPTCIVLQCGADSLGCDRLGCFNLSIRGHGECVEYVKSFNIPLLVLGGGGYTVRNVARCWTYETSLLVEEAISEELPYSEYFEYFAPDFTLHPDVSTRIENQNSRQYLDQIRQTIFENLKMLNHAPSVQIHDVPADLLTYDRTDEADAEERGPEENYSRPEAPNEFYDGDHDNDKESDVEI
HDAC3/NcoR2, sequence (Q9Y618 395-489 partner): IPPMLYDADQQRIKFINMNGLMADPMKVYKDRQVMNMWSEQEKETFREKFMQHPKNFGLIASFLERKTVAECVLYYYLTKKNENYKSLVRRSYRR
Description: as §1

[3] = Acid stability determination; assay type: physicochemical; conditions: 0.01 M HCl, 50° C., 100 μM
Description: A 100 μM solution of test compound was prepared by dilution of a 10 mM DMSO stock solution in a 0.01 M solution of HCl in deionized water. Immediately after mixing, an aliquot (100 μL) was sampled and analyzed by HPLC/UV. The area under the compound peak was determined and used as the time zero reference point. The remainder of the acid sample was incubated at 50° C. and samples were taken after 2, 4, and 24 hours of incubation. On a few occasions, samples were taken at 30 rather than 24 hours. These were analyzed by the same HPLC/UV method and the area of the peak corresponding to the test compound was measured. Percent remaining at a given time point was then calculated as the ratio of the area under the peak after incubation to that at time zero times 100. In those cases where a 30 hour time point was recorded, the percent remaining at 24 hours was obtained by interpolation of the percent remaining versus time curve assuming a unimolecular process, i.e. a monoexponential decay. Percent remaining after 24 hours incubation are presented in Table 5 below, where A corresponds to more than 60%, B is between 40 and 60%, C covers 20 to 40% and D means less than 20%.

HDAC2 = HDAC2 (Homo sapiens (Human), UniProt Q92769); assay: HDAC enzyme inhibition assay (Fluor-de-Lys), HDAC2; assay type: biochemical; conditions: 2 hours pre-incubation
HDAC2, sequence (Q92769 whole entry): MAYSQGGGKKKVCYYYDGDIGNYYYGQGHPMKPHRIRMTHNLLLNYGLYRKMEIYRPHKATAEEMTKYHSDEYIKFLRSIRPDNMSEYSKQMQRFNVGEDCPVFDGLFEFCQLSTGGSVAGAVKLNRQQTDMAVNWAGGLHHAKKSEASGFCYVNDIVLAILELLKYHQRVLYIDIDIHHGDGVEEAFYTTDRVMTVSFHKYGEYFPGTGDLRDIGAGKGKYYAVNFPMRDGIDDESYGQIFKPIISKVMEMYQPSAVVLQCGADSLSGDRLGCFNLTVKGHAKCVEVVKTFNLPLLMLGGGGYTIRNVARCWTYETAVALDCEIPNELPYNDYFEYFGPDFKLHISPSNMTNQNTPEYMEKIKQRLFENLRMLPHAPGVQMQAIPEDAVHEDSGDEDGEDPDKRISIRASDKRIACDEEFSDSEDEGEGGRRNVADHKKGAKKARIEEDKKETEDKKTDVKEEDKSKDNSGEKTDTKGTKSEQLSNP
Description: as §1

[4] = parameters: dose or concentration left out as unconfirmed; conditions: male rats, oral, 78 weeks, cited from earlier work
[5] = rats, subcutaneous, cited from earlier work

HDAC1, sequence (Q13547 whole entry): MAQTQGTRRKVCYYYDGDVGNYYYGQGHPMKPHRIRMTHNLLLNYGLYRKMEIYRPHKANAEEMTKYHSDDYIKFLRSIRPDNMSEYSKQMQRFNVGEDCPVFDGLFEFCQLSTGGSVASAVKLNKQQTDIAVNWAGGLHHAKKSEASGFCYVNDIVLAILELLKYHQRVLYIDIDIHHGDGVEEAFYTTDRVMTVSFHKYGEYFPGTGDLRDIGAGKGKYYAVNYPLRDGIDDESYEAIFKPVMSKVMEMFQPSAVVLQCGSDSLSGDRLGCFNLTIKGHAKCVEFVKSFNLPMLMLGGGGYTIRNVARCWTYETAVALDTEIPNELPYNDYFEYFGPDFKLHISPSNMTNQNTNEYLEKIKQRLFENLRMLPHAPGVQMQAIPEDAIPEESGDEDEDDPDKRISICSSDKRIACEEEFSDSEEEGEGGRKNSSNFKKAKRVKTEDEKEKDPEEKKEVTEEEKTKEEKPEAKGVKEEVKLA

SMILES | IC50 (HDAC1) | % left 6H Hum hep [1] | OPD [1] | Kp [2] | IC50 (HDAC3/NcoR2) | Acid Stability % Left 24 hr [3] | IC50 (HDAC2) | rats with liver tumors ([4]; 8000 low dose) | rats with liver tumors ([4]; 16000 high dose) | tumors ([5]; 45 mg/kg every second day for 11 months) | tumors ([5]; 90 mg/kg every second day for 5 months)
Nc1cc(F)ccc1NC(=O)c1ccc2c(cnn2Cc2ccc(F)c(F)c2)c1 [Compound A10] | < 1 µM | C (30%>C>10%) | No OPD | > 1 | < 1 µM | C (C covers 20 to 40%) | < 1 µM | – | – | – | –
Nc1ccccc1NC(=O)c1ccc2c(cnn2CC2CC2)c1 [Compound A11] | < 1 µM | B (50%>B>30%) | No OPD | 0.2 to 0.5 | < 1 µM | B (B is between 40 and 60%) | < 1 µM | – | – | – | –
Nc1ccccc1N [OPD, o-phenylenediamine] | – | – | – | – | – | – | – | 5 out of 17 | 5 out of 16 | not detected | not detected
